{"source": "PubChem BioAssay AID1963829", "about": "(Molecular Pharmacology Branch, DTP, NCI, 2024);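 note: spheroids exposed to drugs for seven days before viability read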;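 for viability, T/C: 100% = DMSO vehicle control wells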", "test_system": "935938-334-R-J1-PDC complex spheroid viability", "test": "Anticancer human tumor 935938-334-R-J1-PDC patient-derived small intestine adenocarcinoma cell line growth inhibition [POLQ]", "settings": "for IC50: curve of first compound; for viability, T/C: stronger effect = lower value", "outline": "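Patient-derived tumour cells were co-cultured with HUVEC and mesenchymal stem cells as multicellular spheroids at 37 °C. They were treated with POLQ inhibitors (novobiocin, ART-558, RP6685) alone or combined with other agents. Top concentrations were at or near clinical Cmax (otherwise 10 microM; SN-38 at 1 microM), decreasing in half-log steps.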", "key": {"[1]": {"settings": "second compound 0.0316 µM, first compound 0.0316 µM"}, "[2]": {"settings": "second compound 0.0316 µM, first compound 0.1 µM"}, "[3]": {"settings": "second compound 0.0316 µM, first compound 0.316 µM"}, "[4]": {"settings": "second compound 0.0316 µM, first compound 1 µM"}, "[5]": {"settings": "second compound 0.0316 µM, first compound 3.16 µM"}, "[6]": {"settings": "second compound 0.0316 µM, first compound 10 µM"}, "[7]": {"settings": "second compound 0.1 µM, first compound 0.0316 µM"}, "[8]": {"settings": "second compound 0.1 µM, first compound 0.1 µM"}, "[9]": {"settings": "second compound 0.1 µM, first compound 0.316 µM"}, "[10]": {"settings": "second compound 0.1 µM, first compound 1 µM"}, "[11]": {"settings": "second compound 0.1 µM, first compound 3.16 µM"}, "[12]": {"settings": "second compound 0.1 µM, first compound 10 µM"}, "[13]": {"settings": "second compound 0.316 µM, first compound 0.0316 µM"}, "[14]": {"settings": "second compound 0.316 µM, first compound 0.1 µM"}, "[15]": {"settings": "second compound 0.316 µM, first compound 0.316 µM"}, "[16]": {"settings": "second compound 0.316 µM, first compound 1 µM"}, "[17]": {"settings": "second compound 0.316 µM, first compound 3.16 µM"}, "[18]": {"settings": "second compound 0.316 µM, first compound 10 µM"}, "[19]": {"settings": "second compound 1 µM, first compound 0.0316 µM"}, "[20]": {"settings": "second compound 1 µM, first compound 0.1 µM"}, "[21]": {"settings": "second compound 1 µM, first compound 0.316 µM"}, "[22]": {"settings": "second compound 1 µM, first compound 1 µM"}, "[23]": {"settings": "second compound 1 µM, first compound 3.16 µM"}, "[24]": {"settings": "second compound 1 µM, first compound 10 µM"}, "[25]": {"settings": "second compound 3.16 µM, first compound 0.0316 µM"}, "[26]": {"settings": "second compound 3.16 µM, first compound 0.1 µM"}, "[27]": {"settings": "second compound 3.16 µM, first compound 0.316 µM"}, "[28]": {"settings": "second compound 3.16 µM, first compound 1 µM"}, "[29]": {"settings": "second compound 3.16 µM, first compound 3.16 µM"}, "[30]": {"settings": "second compound 3.16 µM, first compound 10 µM"}, "[31]": {"settings": "second compound 10 µM, first compound 0.0316 µM"}, "[32]": {"settings": "second compound 10 µM, first compound 0.1 µM"}, "[33]": {"settings": "second compound 10 µM, first compound 0.316 µM"}, "[34]": {"settings": "second compound 10 µM, first compound 1 µM"}, "[35]": {"settings": "second compound 10 µM, first compound 3.16 µM"}, "[36]": {"settings": "second compound 10 µM, first compound 10 µM"}}, "data": [{"smiles": "Nc1ccn(C2OC(CO)C(O)C2(F)F)c(=O)n1", "note": "(centres undefined) + Nc1ccc(C#CCN(C(=O)Cc2ncc(C(F)(F)F)cc2C(F)(F)F)c2ccc(F)cc2)nn1", "values": [{"measurement": "IC50", "setting": "second compound 0.0316 µM", "result": "< 0.0316", "unit": "µM"}, {"measurement": "IC50", "setting": "second compound 0.1 µM", "result": "< 0.0316", "unit": "µM"}, {"measurement": "IC50", "setting": "second compound 0.316 µM", "result": "< 0.0316", "unit": "µM"}, {"measurement": "IC50", "setting": "second compound 1 µM", "result": "< 0.0316", "unit": "µM"}, {"measurement": "IC50", "setting": "second compound 3.16 µM", "result": "< 0.0316", "unit": "µM"}, {"measurement": "IC50", "setting": "second compound 10 µM", "result": "< 0.0316", "unit": "µM"}, {"measurement": "viability, T/C", "setting": "[1]", "result": 35.4, "unit": "%"}, {"measurement": "viability, T/C", "setting": "[2]", "result": 27.6, "unit": "%"}, {"measurement": "viability, T/C", "setting": "[3]", "result": 17.3, "unit": "%"}, {"measurement": "viability, T/C", "setting": "[4]", "result": 17.3, "unit": "%"}, {"measurement": "viability, T/C", "setting": "[5]", "result": 18.2, "unit": "%"}, {"measurement": "viability, T/C", "setting": "[6]", "result": 16.8, "unit": "%"}, {"measurement": "viability, T/C", "setting": "[7]", "result": 33.2, "unit": "%"}, {"measurement": "viability, T/C", "setting": "[8]", "result": 24.4, "unit": "%"}, {"measurement": "viability, T/C", "setting": "[9]", "result": 16.5, "unit": "%"}, {"measurement": "viability, T/C", "setting": "[10]", "result": 17.5, "unit": "%"}, {"measurement": "viability, T/C", "setting": "[11]", "result": 19.1, "unit": "%"}, {"measurement": "viability, T/C", "setting": "[12]", "result": 13.9, "unit": "%"}, {"measurement": "viability, T/C", "setting": "[13]", "result": 31.1, "unit": "%"}, {"measurement": "viability, T/C", "setting": "[14]", "result": 24.8, "unit": "%"}, {"measurement": "viability, T/C", "setting": "[15]", "result": 23.2, "unit": "%"}, {"measurement": "viability, T/C", "setting": "[16]", "result": 19.6, "unit": "%"}, {"measurement": "viability, T/C", "setting": "[17]", "result": 17.1, "unit": "%"}, {"measurement": "viability, T/C", "setting": "[18]", "result": 14.4, "unit": "%"}, {"measurement": "viability, T/C", "setting": "[19]", "result": 33.2, "unit": "%"}, {"measurement": "viability, T/C", "setting": "[20]", "result": 23.4, "unit": "%"}, {"measurement": "viability, T/C", "setting": "[21]", "result": 18.2, "unit": "%"}, {"measurement": "viability, T/C", "setting": "[22]", "result": 19.1, "unit": "%"}, {"measurement": "viability, T/C", "setting": "[23]", "result": 16.6, "unit": "%"}, {"measurement": "viability, T/C", "setting": "[24]", "result": 15.3, "unit": "%"}, {"measurement": "viability, T/C", "setting": "[25]", "result": 30.2, "unit": "%"}, {"measurement": "viability, T/C", "setting": "[26]", "result": 25.6, "unit": "%"}, {"measurement": "viability, T/C", "setting": "[27]", "result": 20.2, "unit": "%"}, {"measurement": "viability, T/C", "setting": "[28]", "result": 21.2, "unit": "%"}, {"measurement": "viability, T/C", "setting": "[29]", "result": 17.5, "unit": "%"}, {"measurement": "viability, T/C", "setting": "[30]", "result": 17.1, "unit": "%"}, {"measurement": "viability, T/C", "setting": "[31]", "result": 42.9, "unit": "%"}, {"measurement": "viability, T/C", "setting": "[32]", "result": 31.6, "unit": "%"}, {"measurement": "viability, T/C", "setting": "[33]", "result": 30.1, "unit": "%"}, {"measurement": "viability, T/C", "setting": "[34]", "result": 20.6, "unit": "%"}, {"measurement": "viability, T/C", "setting": "[35]", "result": 19.8, "unit": "%"}, {"measurement": "viability, T/C", "setting": "[36]", "result": 19.2, "unit": "%"}]}, {"smiles": "O=C(c1cc(Cc2n[nH]c(=O)c3ccccc23)ccc1F)N1CCN(C(=O)C2CC2)CC1", "note": "+ Nc1ccc(C#CCN(C(=O)Cc2ncc(C(F)(F)F)cc2C(F)(F)F)c2ccc(F)cc2)nn1", "values": [{"measurement": "IC50", "setting": "second compound 0.0316 µM", "result": "> 10", "unit": "µM"}, {"measurement": "IC50", "setting": "second compound 0.1 µM", "result": "> 10", "unit": "µM"}, {"measurement": "IC50", "setting": "second compound 0.316 µM", "result": "> 10", "unit": "µM"}, {"measurement": "IC50", "setting": "second compound 1 µM", "result": "> 10", "unit": "µM"}, {"measurement": "IC50", "setting": "second compound 3.16 µM", "result": "> 10", "unit": "µM"}, {"measurement": "IC50", "setting": "second compound 10 µM", "result": "> 10", "unit": "µM"}, {"measurement": "viability, T/C", "setting": "[1]", "result": 87.6, "unit": "%"}, {"measurement": "viability, T/C", "setting": "[2]", "result": 89.3, "unit": "%"}, {"measurement": "viability, T/C", "setting": "[3]", "result": 108, "unit": "%"}, {"measurement": "viability, T/C", "setting": "[4]", "result": 89.5, "unit": "%"}, {"measurement": "viability, T/C", "setting": "[5]", "result": 75.2, "unit": "%"}, {"measurement": "viability, T/C", "setting": "[6]", "result": 76.3, "unit": "%"}, {"measurement": "viability, T/C", "setting": "[7]", "result": 93.7, "unit": "%"}, {"measurement": "viability, T/C", "setting": "[8]", "result": 81, "unit": "%"}, {"measurement": "viability, T/C", "setting": "[9]", "result": 105, "unit": "%"}, {"measurement": "viability, T/C", "setting": "[10]", "result": 73.1, "unit": "%"}, {"measurement": "viability, T/C", "setting": "[11]", "result": 81, "unit": "%"}, {"measurement": "viability, T/C", "setting": "[12]", "result": 60, "unit": "%"}, {"measurement": "viability, T/C", "setting": "[13]", "result": 84.4, "unit": "%"}, {"measurement": "viability, T/C", "setting": "[14]", "result": 85, "unit": "%"}, {"measurement": "viability, T/C", "setting": "[15]", "result": 116, "unit": "%"}, {"measurement": "viability, T/C", "setting": "[16]", "result": 69.3, "unit": "%"}, {"measurement": "viability, T/C", "setting": "[17]", "result": 74.3, "unit": "%"}, {"measurement": "viability, T/C", "setting": "[18]", "result": 53.3, "unit": "%"}, {"measurement": "viability, T/C", "setting": "[19]", "result": 99.3, "unit": "%"}, {"measurement": "viability, T/C", "setting": "[20]", "result": 99.8, "unit": "%"}, {"measurement": "viability, T/C", "setting": "[21]", "result": 107, "unit": "%"}, {"measurement": "viability, T/C", "setting": "[22]", "result": 98.6, "unit": "%"}, {"measurement": "viability, T/C", "setting": "[23]", "result": 111, "unit": "%"}, {"measurement": "viability, T/C", "setting": "[24]", "result": 78.7, "unit": "%"}, {"measurement": "viability, T/C", "setting": "[25]", "result": 92, "unit": "%"}, {"measurement": "viability, T/C", "setting": "[26]", "result": 93.5, "unit": "%"}, {"measurement": "viability, T/C", "setting": "[27]", "result": 95, "unit": "%"}, {"measurement": "viability, T/C", "setting": "[28]", "result": 94.8, "unit": "%"}, {"measurement": "viability, T/C", "setting": "[29]", "result": 94.9, "unit": "%"}, {"measurement": "viability, T/C", "setting": "[30]", "result": 69.2, "unit": "%"}, {"measurement": "viability, T/C", "setting": "[31]", "result": 84.4, "unit": "%"}, {"measurement": "viability, T/C", "setting": "[32]", "result": 94.9, "unit": "%"}, {"measurement": "viability, T/C", "setting": "[33]", "result": 102, "unit": "%"}, {"measurement": "viability, T/C", "setting": "[34]", "result": 98.2, "unit": "%"}, {"measurement": "viability, T/C", "setting": "[35]", "result": 81, "unit": "%"}, {"measurement": "viability, T/C", "setting": "[36]", "result": 85.9, "unit": "%"}]}]}
